Reference: ChEMBL document CHEMBL4390668, “Discovery and Structural Optimization of Acridones as Broad-Spectrum Antimalarials” (J Med Chem, 2019)
Calls of active or inactive are those of the source. The calls are words filed in the database; no cut-off is given here.

Legend:
[1] = Mean residence time in ICR mouse plasma at 80 mg/kg, po administered as single dose; format: ADME, organism-based
[2] = Apparent volume of distribution in ICR mouse plasma at 80 mg/kg, po administered as single dose; format: ADME, organism-based; details: in vivo
[3] = Apparent elimination half life in ICR mouse plasma at 80 mg/kg, po administered as single dose; format: ADME, organism-based; details: ICR, plasma, read-out: betat1/2(app) (converted)
Plasmodium yoelii = assay: Antimalarial activity against blood stage Plasmodium yoelii MR4 MRA-428 infected in CF1 mouse assessed as suppression of parasitemia administered once daily via oral gavage for 4 days starting from 24 hrs post-infection and measured post-last dose by Giemsa-staining based microscopic analysis; format: functional
Plasmodium falciparum [4] = assay: Antimalarial activity against chloroquine-sensitive Plasmodium falciparum D6 infected in human erythrocytes by SYBR green 1-based fluorescence assay; format: functional, organism-based
Plasmodium falciparum [5] = assay: Antimalarial activity against multidrug-resistant Plasmodium falciparum Dd2 infected in human erythrocytes by SYBR green 1-based fluorescence assay; format: functional, organism-based
Plasmodium falciparum [6] = assay: Antimalarial activity against multidrug-resistant Plasmodium falciparum 7G8 infected in human erythrocytes by SYBR green 1-based fluorescence assay; format: functional, organism-based
Plasmodium falciparum [7] = assay: Antimalarial activity against atovaquone-resistant Plasmodium falciparum Tm90-C2B infected in human erythrocytes by SYBR green 1-based fluorescence assay; format: functional, organism-based
HepG2 = assay: Cytotoxicity against human HepG2 cells measured after 24 to 36 hrs by resazurin dye based fluorescence assay; format: cell-based
[8] = Selectivity index, ratio of IC50 for human HepG2 cells to IC50 for chloroquine-sensitive Plasmodium falciparum D6 infected in human erythrocytes; format: toxicity, cell-based; details: read-out: Ratio IC50
Plasmodium berghei [9] = assay: Antimalarial activity against luciferase-expressing Plasmodium berghei ANKA 676m1cl1 sporozoites infected in human HepG2A16 cells measured after 45 hrs by luciferase-luciferin based reporter assay; format: functional, organism-based; details: ANKA 676m1cl1, HepG2A16, 45 h
Plasmodium berghei [10] = assay: Antimalarial activity against liver stage luciferase-expressing Plasmodium berghei ANKA 676m1cl1 sporozoites infected in C57BL/6 mouse assessed as suppression of parasitemia at 40 to 160 mg/kg, po pretreated for 1 day followed by parasite infection and subsequent compound dosing for 2 days measured at 24 to 48 hrs post-infection by luciferin-based real-time imaging analysis; format: functional
[11] = Half life in human liver microsomes at 1 uM by LC-MS analysis; format: ADME, Microsome
[12] = Half life in mouse liver microsomes at 1 uM by LC-MS analysis; format: ADME, Microsome
[13] = Cmax in ICR mouse plasma at 80 mg/kg, po administered as single dose; format: ADME, organism-based; design: dose 80 mg/kg, route oral; details: ICR, plasma, read-out: Cmax
[14] = Tmax in ICR mouse plasma at 80 mg/kg, po administered as single dose; format: ADME, organism-based; details: ICR, plasma, read-out: Tmax
[15] = AUC (0 to last) in ICR mouse plasma at 80 mg/kg, po administered as single dose; format: ADME, organism-based; design: dose 80 mg/kg, route oral, time 0 - last
[16] = AUC (0 to infinity) in ICR mouse plasma at 80 mg/kg, po administered as single dose; format: ADME, organism-based; design: dose 80 mg/kg, route oral, time infinity; details: ICR, plasma
[17] = Apparent clearance in ICR mouse plasma at 80 mg/kg, po administered as single dose; format: ADME, organism-based; details: read-out: CL(app) (converted)
[18] = Cmax in ICR mouse liver at 80 mg/kg, po administered as single dose; format: ADME, organism-based; design: dose 80 mg/kg, route oral
[19] = Tmax in ICR mouse liver at 80 mg/kg, po administered as single dose; format: ADME, organism-based
[20] = AUC (0 to last) in ICR mouse liver at 80 mg/kg, po administered as single dose; format: ADME, organism-based; design: dose 80 mg/kg, route oral, time 0 - last
[21] = AUC (0 to infinity) in ICR mouse liver at 80 mg/kg, po administered as single dose; format: ADME, organism-based; design: dose 80 mg/kg, route oral, time infinity
[22] = Apparent elimination half life in ICR mouse liver at 80 mg/kg, po administered as single dose; format: ADME, organism-based; details: read-out: betat1/2(app) (converted)
[23] = Mean residence time in ICR mouse liver at 80 mg/kg, po administered as single dose; format: ADME, organism-based
Plasmodium falciparum [24] = assay: Antimalarial activity against drug-resistant Plasmodium falciparum Dd2 harboring V259L mutant infected in human erythrocytes after 72 hrs by SYBR green 1-based fluorescence assay; format: functional, organism-based; details: Dd2, 72 h
Plasmodium falciparum [25] = assay: Antimalarial activity against drug-resistant Plasmodium falciparum Dd2 harboring M133I/A138T double mutant infected in human erythrocytes after 72 hrs by SYBR green 1-based fluorescence assay; format: functional, organism-based; details: Dd2, 72 h
Plasmodium falciparum [26] = assay: Antimalarial activity against Plasmodium falciparum 3D7 infected in human erythrocytes after 72 hrs by SYBR green 1-based fluorescence assay; format: functional, organism-based; details: 3D7, 72 h
Plasmodium falciparum [27] = assay: Antimalarial activity against drug-resistant Plasmodium falciparum 3D7 harboring A82T/V259L double mutant infected in human erythrocytes after 72 hrs by SYBR green 1-based fluorescence assay; format: functional, organism-based; details: 3D7, 72 h
Plasmodium falciparum [28] = assay: Inhibition of Plasmodium falciparum cytochrome b-c1
hERG (KCNH2) = hERG (KCNH2) (Homo sapiens, UniProt Q12809); assay: Inhibition of human ERG expressed in CHOK1 cells at 10 uM by automated patch clamp method relative to control; format: cell-based; details: CHO-K1 cells that express hERG
Sequence of hERG (KCNH2) (Q12809 whole entry): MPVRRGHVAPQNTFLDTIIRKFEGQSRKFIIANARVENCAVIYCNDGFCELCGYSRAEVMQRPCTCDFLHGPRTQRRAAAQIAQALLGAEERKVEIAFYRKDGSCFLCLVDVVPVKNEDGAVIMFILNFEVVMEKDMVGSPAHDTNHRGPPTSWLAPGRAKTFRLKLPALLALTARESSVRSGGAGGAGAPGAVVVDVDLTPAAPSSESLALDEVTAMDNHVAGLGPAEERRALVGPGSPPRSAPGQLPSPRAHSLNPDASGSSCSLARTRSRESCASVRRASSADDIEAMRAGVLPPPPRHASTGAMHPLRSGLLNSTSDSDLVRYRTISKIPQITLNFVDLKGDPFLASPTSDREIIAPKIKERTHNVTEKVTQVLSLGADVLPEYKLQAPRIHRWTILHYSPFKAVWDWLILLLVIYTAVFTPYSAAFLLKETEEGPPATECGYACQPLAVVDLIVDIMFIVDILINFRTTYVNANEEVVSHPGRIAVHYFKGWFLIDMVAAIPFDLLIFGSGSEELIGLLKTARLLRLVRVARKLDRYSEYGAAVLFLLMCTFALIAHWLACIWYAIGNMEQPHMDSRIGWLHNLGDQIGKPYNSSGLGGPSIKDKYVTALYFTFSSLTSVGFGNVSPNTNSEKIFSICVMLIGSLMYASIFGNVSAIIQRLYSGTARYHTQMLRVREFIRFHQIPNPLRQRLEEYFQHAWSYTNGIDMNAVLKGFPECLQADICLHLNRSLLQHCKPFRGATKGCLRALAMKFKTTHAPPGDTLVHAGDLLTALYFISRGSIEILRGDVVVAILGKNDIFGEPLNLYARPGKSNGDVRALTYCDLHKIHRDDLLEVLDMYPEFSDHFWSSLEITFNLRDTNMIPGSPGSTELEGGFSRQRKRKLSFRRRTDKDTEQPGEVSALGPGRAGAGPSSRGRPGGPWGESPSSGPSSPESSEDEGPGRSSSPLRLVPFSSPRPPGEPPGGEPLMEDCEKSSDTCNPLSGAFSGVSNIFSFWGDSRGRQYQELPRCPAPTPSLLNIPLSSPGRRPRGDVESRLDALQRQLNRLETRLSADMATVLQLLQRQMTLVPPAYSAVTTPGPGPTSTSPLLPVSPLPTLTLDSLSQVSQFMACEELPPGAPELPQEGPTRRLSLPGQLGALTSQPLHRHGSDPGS

[29] = Mutagenicity in Salmonella typhimurium TA100 assessed as increase in revertant colonies up to 10 uM in presence of S9 fraction by Ames test; format: toxicity, subcellular; details: salmonella enterica subsp. enterica serovar typhimurium
[30] = Mutagenicity in Salmonella typhimurium TA100 assessed as increase in revertant colonies up to 10 uM in absence of S9 fraction by Ames test; format: toxicity; details: salmonella enterica subsp. enterica serovar typhimurium
[31] = Mutagenicity in Salmonella typhimurium TA98 assessed as increase in revertant colonies up to 10 uM in presence of S9 fraction by Ames test; format: toxicity, subcellular; details: salmonella enterica subsp. enterica serovar typhimurium
[32] = Mutagenicity in Salmonella typhimurium TA98 assessed as increase in revertant colonies up to 10 uM in absence of S9 fraction by Ames test; format: toxicity; details: salmonella enterica subsp. enterica serovar typhimurium
Plasmodium falciparum [33] = assay: Antimalarial activity against drug-resistant Plasmodium falciparum Dd2 harboring M133I mutant infected in human erythrocytes after 72 hrs by SYBR green 1-based fluorescence assay; format: functional, organism-based; details: Dd2, 72 h
Plasmodium falciparum [34] = assay: Ratio of IC50 for drug-resistant Plasmodium falciparum Dd2 harboring V259L mutant infected in human erythrocytes to IC50 for multidrug-resistant Plasmodium falciparum Dd2 infected in human erythrocytes; format: functional
Plasmodium falciparum [35] = assay: Ratio of IC50 for drug-resistant Plasmodium falciparum Dd2 harboring M133I mutant infected in human erythrocytes to IC50 for multidrug-resistant Plasmodium falciparum Dd2 infected in human erythrocytes; format: functional
Plasmodium falciparum [36] = assay: Ratio of IC50 for drug-resistant Plasmodium falciparum Dd2 harboring M133I/A138T double mutant infected in human erythrocytes to IC50 for multidrug-resistant Plasmodium falciparum Dd2 infected in human erythrocytes; format: functional
Plasmodium falciparum [37] = assay: Ratio of IC50 for drug-resistant Plasmodium falciparum 3D7 harboring A82T/V259L double mutant infected in human erythrocytes to IC50 for Plasmodium falciparum 3D7 infected in human erythrocytes; format: functional

Work on `CCN(CC)CCOc1ccc2c(=O)c3ccc(Cl)cc3[nH]c2c1` yielded an MRT [1] of 3.41 h, a Vz [2] of 37.689 L/kg and a half-life [3] of 1.9 h. It also gave an ED50 (Plasmodium yoelii) of 48 mg/kg.day, an ED90 (Plasmodium yoelii) of 72 mg/kg.day and an IC50 (Plasmodium falciparum [4]) of 32 nM. It also gave an IC50 (Plasmodium falciparum [5]) of 41 to 117 nM, an IC50 (Plasmodium falciparum [6]) of 38 nM and an IC50 (Plasmodium falciparum [7]) of 589 nM. For the same compound, the IC50 (HepG2) was 36400 nM, the selectivity ratio [8] was 1140 and the IC50 (Plasmodium berghei [9]) was 113 nM. For the same compound, the Activity (Plasmodium berghei [10]) was 100%, the half-life at 1 µM [11] was > 1 h and the half-life at 1 µM [12] was > 1 h. It also gave a Cmax [13] of 1.35 µg/mL, a Tmax [14] of 2 h and an AUC(0-t) [15] of 5.31 µg·h/mL. The AUC(0-inf) [16] was 5.81 µg·h/mL, the CL/F [17] was 230 mL/min/kg and the Cmax [18] was 193 µg/mL. For the same compound, the Tmax [19] was 1 h, the AUC(0-t) [20] was 1460 µg·h/mL and the AUC(0-inf) [21] was 1460 µg·h/mL. The half-life [22] was 6.7 h, the MRT [23] was 5.59 h and the IC50 (Plasmodium falciparum [24]) was 2120 nM. For the same compound, the IC50 (Plasmodium falciparum [25]) was 1070 nM, the IC50 (Plasmodium falciparum [26]) was 84 nM and the IC50 (Plasmodium falciparum [27]) was 1640 nM. For the same compound, the inhibition (Plasmodium falciparum [28]) was “inactive”.

With `CCN(CC)CCOc1ccc2c(=O)c3c(Cl)c(Cl)ccc3[nH]c2c1` the ED50 (Plasmodium yoelii) was 1.8 mg/kg.day, the ED90 (Plasmodium yoelii) was 8.8 mg/kg.day and the IC50 (Plasmodium falciparum [4]) was 10 nM. For the same compound, the IC50 (Plasmodium falciparum [5]) was 12 to 40 nM, the IC50 (Plasmodium falciparum [6]) was 17 nM and the IC50 (Plasmodium falciparum [7]) was 1260 nM. It also gave an IC50 (HepG2) of 14400 nM, a selectivity ratio [8] of 1440 and an IC50 (Plasmodium berghei [9]) of 5.5 nM. The Activity (Plasmodium berghei [10]) was 100%, the inhibition at 10 µM (hERG (KCNH2)) was 78% and the half-life at 1 µM [11] was > 1 h. For the same compound, the Activity [29] was “Non-Toxic”, the Activity [30] was “Non-Toxic” and the Activity [31] was “Non-Toxic”. The Activity [32] was “Non-Toxic”, the half-life at 1 µM [12] was 0.833 h and the IC50 (Plasmodium falciparum [24]) was 1440 nM. It also gave an IC50 (Plasmodium falciparum [25]) of 1680 nM, an IC50 (Plasmodium falciparum [33]) of 242 nM and an IC50 (Plasmodium falciparum [26]) of 28 nM. The IC50 (Plasmodium falciparum [27]) was 1520 nM, the “Ratio IC50” value (Plasmodium falciparum [34]) was 36 and the “Ratio IC50” value (Plasmodium falciparum [35]) was 6. For the same compound, the “Ratio IC50” value (Plasmodium falciparum [36]) was 42, the “Ratio IC50” value (Plasmodium falciparum [37]) was 54 and the inhibition (Plasmodium falciparum [28]) was “inactive”.
